{"source": "patent US20250171495A1", "about": "“MUTLI-TARGETED SERINE PROTEASE INHIBITORS FOR TREATMENT OF CANCER AND VIRAL INFECTION” (Washington University, priority 2023, published 2025)", "format_in_all_cases": "biochemical", "key": {"matriptase": {"target": "T1, matriptase (Homo sapiens, UniProt Q9Y5Y6)", "T1 construct": "purchased R&D Systems 3946-SEB-010", "T1 sequence (Q9Y5Y6 615-855 limits assumed)": "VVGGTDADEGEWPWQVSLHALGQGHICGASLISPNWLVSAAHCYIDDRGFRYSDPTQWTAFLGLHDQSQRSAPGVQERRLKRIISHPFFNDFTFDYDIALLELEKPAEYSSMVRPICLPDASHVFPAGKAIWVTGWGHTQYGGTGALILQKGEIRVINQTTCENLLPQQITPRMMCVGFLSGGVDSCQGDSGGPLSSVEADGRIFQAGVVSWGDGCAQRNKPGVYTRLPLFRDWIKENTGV", "assay": "Fluorogenic kinetic enzyme inhibitor assay, matriptase"}, "hepsin": {"target": "T2, hepsin (Homo sapiens, UniProt P05981)", "T2 construct": "purchased R&D Systems 4776-SE-010", "T2 sequence (P05981 163-417 limits assumed)": "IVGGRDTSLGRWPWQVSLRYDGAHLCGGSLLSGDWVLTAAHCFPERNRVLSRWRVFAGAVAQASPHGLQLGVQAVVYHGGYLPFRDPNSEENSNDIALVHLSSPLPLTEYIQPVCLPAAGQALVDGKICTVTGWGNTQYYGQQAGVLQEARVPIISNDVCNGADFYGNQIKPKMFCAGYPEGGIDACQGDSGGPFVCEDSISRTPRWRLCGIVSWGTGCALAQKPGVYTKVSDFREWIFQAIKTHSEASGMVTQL", "T2 sequence (P05981 1-162 partner limits assumed)": "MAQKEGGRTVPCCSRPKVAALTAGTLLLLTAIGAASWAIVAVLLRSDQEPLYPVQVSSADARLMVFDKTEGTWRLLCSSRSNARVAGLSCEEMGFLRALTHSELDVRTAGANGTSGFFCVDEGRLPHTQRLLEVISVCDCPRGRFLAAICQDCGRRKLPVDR", "assay": "Fluorogenic kinetic enzyme inhibitor assay, hepsin"}, "HGFA": {"target": "T3, HGFA (Homo sapiens, UniProt Q04756)", "T3 construct": "purchased R&D Systems 1514-SE-010", "T3 sequence (Q04756 408-655 limits assumed)": "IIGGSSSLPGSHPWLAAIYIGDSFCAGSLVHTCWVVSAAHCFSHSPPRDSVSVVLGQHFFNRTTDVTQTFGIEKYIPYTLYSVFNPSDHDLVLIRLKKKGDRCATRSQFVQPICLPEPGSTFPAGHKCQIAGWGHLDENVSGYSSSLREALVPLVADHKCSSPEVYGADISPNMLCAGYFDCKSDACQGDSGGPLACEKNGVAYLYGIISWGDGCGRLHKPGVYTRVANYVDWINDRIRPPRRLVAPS", "T3 sequence (Q04756 373-407 partner limits assumed)": "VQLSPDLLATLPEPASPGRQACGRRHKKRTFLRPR", "assay": "Fluorogenic kinetic enzyme inhibitor assay, HGFA"}, "Thrombin": {"target": "Thrombin (Homo sapiens, UniProt P00734)", "assay": "Fluorogenic assay, thrombin"}, "Factor Xa": {"target": "T4, Factor Xa (Homo sapiens, UniProt P00742)", "T4 construct": "TMPRSS2; Matriptase; Hepsin; HGFA; Thrombin; Factor Xa", "T4 sequence (P00742 235-488 limits assumed)": "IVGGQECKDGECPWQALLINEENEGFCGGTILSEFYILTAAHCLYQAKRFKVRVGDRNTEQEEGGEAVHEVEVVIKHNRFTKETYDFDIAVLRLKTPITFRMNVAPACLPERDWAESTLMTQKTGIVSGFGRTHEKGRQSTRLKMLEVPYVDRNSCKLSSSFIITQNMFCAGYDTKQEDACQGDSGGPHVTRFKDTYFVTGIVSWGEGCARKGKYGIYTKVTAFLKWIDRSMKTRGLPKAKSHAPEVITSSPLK", "T4 sequence (P00742 41-179 partner limits assumed)": "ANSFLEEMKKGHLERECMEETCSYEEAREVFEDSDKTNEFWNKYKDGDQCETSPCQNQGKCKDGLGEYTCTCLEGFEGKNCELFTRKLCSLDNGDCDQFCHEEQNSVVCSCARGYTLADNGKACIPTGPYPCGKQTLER", "assay": "Fluorogenic assay, Factor Xa", "conditions": "read-out: Factor Xa IC50"}, "TMPRSS2": {"target": "TMPRSS2 (Homo sapiens, UniProt O15393)", "sequence (O15393 106-492 limits assumed)": "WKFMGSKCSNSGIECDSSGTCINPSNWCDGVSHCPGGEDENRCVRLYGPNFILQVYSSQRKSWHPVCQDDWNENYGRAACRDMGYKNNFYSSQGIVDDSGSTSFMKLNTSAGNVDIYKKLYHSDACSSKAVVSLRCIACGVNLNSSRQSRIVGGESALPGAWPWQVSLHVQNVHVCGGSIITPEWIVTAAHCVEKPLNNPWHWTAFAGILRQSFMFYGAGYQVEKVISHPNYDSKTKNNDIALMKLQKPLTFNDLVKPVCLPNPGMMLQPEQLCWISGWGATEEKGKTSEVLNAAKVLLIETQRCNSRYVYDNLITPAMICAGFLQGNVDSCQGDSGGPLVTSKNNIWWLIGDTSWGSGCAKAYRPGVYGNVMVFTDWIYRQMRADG", "assay": "Fluorogenic kinetic enzyme inhibitor assay, TMPRSS2", "design": "purchased Cusabio Technology CSB-YP023924HU", "conditions": "read-out: TMPRSS2 IC50"}, "[1]": {"conditions": "30 min incubation, Boc-QAR-AMC at Km, read-out: Hepsin IC50"}, "[2]": {"conditions": "30 min incubation, Boc-QLR-AMC at Km, read-out: HGFA IC50"}, "[3]": {"conditions": "30 min incubation, Boc-QAR-AMC at Km, read-out: Matriptase IC50"}, "[4]": {"conditions": "30 min incubation, Boc-QAR-AMC at Km"}}, "note": "Like-named read-outs stand apart in the source and are kept apart here.", "data": [{"smiles": "CSCC[C@@H]1NC(=O)[C@@H](NC(C)=O)CC(=O)NCCCC[C@@H](C(=O)N[C@@H](CCCNC(=N)N)C(=O)c2nc3ccccc3s2)NC1=O", "note": "[VD3173, N-[(S)-1-[(1,3-benzothiazol-2-yl)carbonyl]-4-guanidinobutyl]-(3S,6S,14S)-6-acetylamino-3-[2-(methylthio)ethyl]-2,5,8-trioxo-1,4,9-triaza-14-cyclotetradecanecarboxamide]", "values": [{"measurement": "IC50", "setting": "matriptase; read-out: Matriptase IC50", "result": 0.001, "unit": "µM"}, {"measurement": "IC50", "setting": "hepsin; [1]", "result": 0.0059, "unit": "µM"}, {"measurement": "IC50", "setting": "HGFA; [2]", "result": 3.24, "unit": "µM"}, {"measurement": "IC50", "setting": "Thrombin", "result": 18.5, "unit": "µM"}, {"measurement": "IC50", "setting": "Factor Xa", "result": 1.39, "unit": "µM"}, {"measurement": "IC50", "setting": "TMPRSS2", "result": 0.000401, "unit": "µM"}]}, {"smiles": "CC(=O)N[C@H]1Cc2ccc(cc2)OC/C=C\\C[C@@H](C(=O)N[C@@H](CCCNC(=N)N)C(=O)c2nc3ccccc3s2)NC(=O)[C@H](CC(C)C)NC1=O", "note": "[VD4010, N-[(S)-1-[(1,3-benzothiazol-2-yl)carbonyl]-4-guanidinobutyl]-(4Z,7S,10S,13S)-13-acetylamino-10-isobutyl-9,12-dioxo-2-oxa-8,11-diazabicyclo[13.2.2]nonadeca-1(17),4,15,18-tetraene-7-carboxamide]", "values": [{"measurement": "IC50", "setting": "matriptase", "result": 0.0034, "unit": "µM"}, {"measurement": "IC50", "setting": "hepsin; read-out: Hepsin IC50", "result": 0.00017, "unit": "µM"}, {"measurement": "IC50", "setting": "HGFA; read-out: HGFA IC50", "result": 0.053, "unit": "µM"}, {"measurement": "IC50", "setting": "Thrombin", "result": "> 20", "unit": "µM"}, {"measurement": "IC50", "setting": "Factor Xa", "result": 0.122, "unit": "µM"}, {"measurement": "IC50", "setting": "TMPRSS2", "result": 0.00121, "unit": "µM"}]}, {"smiles": "CC(=O)N[C@H]1C/C=C\\COc2ccc(cc2)C[C@@H](C(=O)N[C@@H](CCCNC(=N)N)C(=O)c2nc3ccccc3s2)NC(=O)[C@H](CC(C)C)NC1=O", "note": "[VD4051, N-[(S)-1-[(1,3-benzothiazol-2-yl)carbonyl]-4-guanidinobutyl]-(4Z,7S,10S,13S)-7-acetylamino-10-isobutyl-8,11-dioxo-2-oxa-9,12-diazabicyclo[13.2.2]nonadeca-1(17),4,15,18-tetraene-13-carboxamide]", "values": [{"measurement": "IC50", "setting": "matriptase", "result": 0.014, "unit": "µM"}, {"measurement": "IC50", "setting": "hepsin", "result": 0.02, "unit": "µM"}, {"measurement": "IC50", "setting": "HGFA", "result": "> 20", "unit": "µM"}, {"measurement": "IC50", "setting": "Thrombin", "result": "> 20", "unit": "µM"}, {"measurement": "IC50", "setting": "Factor Xa", "result": 8.81, "unit": "µM"}, {"measurement": "IC50", "setting": "TMPRSS2", "result": 0.0142, "unit": "µM"}]}, {"smiles": "CC(=O)N[C@H]1Cc2ccc(cc2)OCCCC[C@@H](C(=O)N[C@@H](CCCNC(=N)N)C(=O)c2nc3ccccc3s2)NC(=O)[C@H](CC(C)C)NC1=O", "note": "[VD4072, N-[(S)-1-[(1,3-benzothiazol-2-yl)carbonyl]-4-guanidinobutyl]-(7S,10S,13S)-13-acetylamino-10-isobutyl-9,12-dioxo-2-oxa-8,11-diazabicyclo[13.2.2]nonadeca-1(17),15,18-triene-7-carboxamide]", "values": [{"measurement": "IC50", "setting": "matriptase; [3]", "result": 0.032, "unit": "µM"}, {"measurement": "IC50", "setting": "hepsin; [1]", "result": 0.00091, "unit": "µM"}, {"measurement": "IC50", "setting": "HGFA; [2]", "result": 0.04, "unit": "µM"}, {"measurement": "IC50", "setting": "Thrombin", "result": "> 20", "unit": "µM"}, {"measurement": "IC50", "setting": "Factor Xa", "result": 2.65, "unit": "µM"}, {"measurement": "IC50", "setting": "TMPRSS2; [4]", "result": 0.00979, "unit": "µM"}]}, {"smiles": "CC(=O)N[C@H]1CCCCn2cc(nn2)C[C@H](C(=O)N[C@@H](CCCNC(=N)N)C(=O)c2nc3ccccc3s2)NC(=O)[C@H](CC(C)C)NC1=O", "note": "[VD4118B, N-[(S)-1-[(1,3-benzothiazol-2-yl)carbonyl]-4-guanidinobutyl]-(6S,9S,12R)-6-acetylamino-9-isobutyl-7,10-dioxo-1,8,11,15,16-pentaazabicyclo[12.2.1]heptadeca-14(17),15-diene-12-carboxamide]", "values": [{"measurement": "IC50", "setting": "matriptase; [3]", "result": 0.0912, "unit": "µM"}, {"measurement": "IC50", "setting": "hepsin; [1]", "result": 0.137, "unit": "µM"}, {"measurement": "IC50", "setting": "HGFA; [2]", "result": 10.9, "unit": "µM"}, {"measurement": "IC50", "setting": "Thrombin", "result": "> 20", "unit": "µM"}, {"measurement": "IC50", "setting": "Factor Xa", "result": 9.54, "unit": "µM"}, {"measurement": "IC50", "setting": "TMPRSS2; [4]", "result": 0.0149, "unit": "µM"}]}, {"smiles": "CC(=O)N[C@H]1Cc2ccc(cc2)OCCCC[C@@H](C(=O)N[C@@H](CCCNC(=N)N)C(=O)c2nc3ccccc3s2)NC(=O)[C@H](Cc2c[nH]c3ccccc23)NC1=O", "note": "[VD4158, N-[(S)-1-[(1,3-benzothiazol-2-yl)carbonyl]-4-guanidinobutyl]-(7S,10S,13S)-13-acetylamino-10-[(3-indolyl)methyl]-9,12-dioxo-2-oxa-8,11-diazabicyclo[13.2.2]nonadeca-1(17),15,18-triene-7-carboxamide]", "values": [{"measurement": "IC50", "setting": "matriptase; [3]", "result": 0.0568, "unit": "µM"}, {"measurement": "IC50", "setting": "hepsin", "result": 0.00284, "unit": "µM"}, {"measurement": "IC50", "setting": "HGFA; [2]", "result": 0.0852, "unit": "µM"}, {"measurement": "IC50", "setting": "Thrombin", "result": "> 20", "unit": "µM"}, {"measurement": "IC50", "setting": "Factor Xa", "result": 9.53, "unit": "µM"}, {"measurement": "IC50", "setting": "TMPRSS2; [4]", "result": 0.0158, "unit": "µM"}]}]}
